Values of other authors, collected in patent US7109191B2, “Benzazepinone alpha vintegrin receptor antagonists” (Merck & Co., Inc., priority 2001, dated 2006).

Test system: postmenopausal osteoporotic women
Conditions: after a median of 22 months of treatment

## hPTH(1–34): human parathyroid hormone 1–34 fragment (SVSEIQLMHNLGKHLNSMERVEWLRKKLQDVHNF; Parathyroid hormone; UniProt P01270 32-65, looked up, fragment)
  reduction in nonvertebral fractures: 54%
  reduction in spine fractures: ≥ 65%
